Experimental data reported in US10975087B2, “Solid forms of tetrahydropyranyl amino-pyrrolopyrimidinone compounds” (ArQule, Inc., priority 2018, dated 2021).
Where “and” joins values, the source holds several entries; their conditions need not be identical. Equal values may be shown once. Entries after “also recorded” stand apart in the source; their conditions may differ.

Key:
Format in all cases: physicochemical
[1] = Accelerated storage conditions (75% RH/40° C. for 72 hours), XRPD
[2] = Variable temperature X-ray powder diffraction (VT-XRPD)
Method: VT-XRPD analysis was carried out on a Philips X'Pert Pro Multipurpose diffractometer. The samples were scanned between 4 and 35.99° 2θ using Cu K radiation (α1 λ=1.54060 Å; α2=1.54443 Å; β=1.39225 Å; α1:α2 ratio=0.5) running in Bragg-Brentano geometry (step size 0.008° 2θ) using 40 kV/40 mA generator settings. Measurements were performed at each step of the temperature profile: 30° C. initial scan, 150° C., 200° C., 210° C., 230° C., and 30° C., final scan.

[3] = Dynamic vapor sorption (DVS); settings: for Post-DVS XRPD analysis (form): after exposure to elevated humidity; for moisture uptake by DVS: at 90% RH
Method: Approximately 10-20 mg of sample was placed into a mesh vapor sorption balance pan and loaded into a DVS-1 dynamic vapor sorption balance by Surface Measurement Systems. […] After completion of the sorption cycle, the sample was dried using the same procedure to 0% RH and then a second sorption cycle back to 40% RH. Two cycles were performed. The weight change during the sorption/desorption cycles were plotted, allowing for the hygroscopic nature of the sample to be determined. XRPD analysis may be then carried out on any solid retained.

[4] = Karl Fischer coulometric titration (KF) water content
Method: Approximately 10-30 mg of solid material was accurately weighed into a vial. The solid was then manually introduced into the titration cell of a Mettler Toledo C30 Compact Titrator. The vial was back-weighed after the addition of the solid and the weight of the added solid entered on the instrument. Titration was initiated once the sample had fully dissolved in the cell. The water content was calculated automatically by the instrument as a percentage and the data printed.

[5] = Hydration studies in water/acetone mixtures; settings: for Hydration study result (solid by XRPD): 5 days; for solid obtained in hydration study: the other experiments (remaining water contents/temperatures)
Method: Hydration experiments were performed at 25° C. and 50° C. in water/acetone mixtures with the following water content (volume %): 2%, 5%, and 20%. The samples were prepared by adding 250 μL of the water/acetone mixture to 15 mg of the salt sample. The samples were stirred at 25° C. or at 50° C. After 2 days, the samples were inspected for the presence of solid. If solid was not observed, additional salt material was added to the dissolved samples. Samples were stirred for an additional 3 days. After 5 days, samples were filtered and the solid obtained was analyzed by XRPD.

[6] = Thermodynamic solubility pH measurements; settings: for Solubility (mg/mL): Input Solvent pH 6.5, 25° C.; for XRPD after thermodynamic solubility studies: respective buffer
Method: After 2 hours at 25° C., the pH of each slurry was measured and the pH was adjusted, where required. After 24 hours at 25° C., the pH of each slurry was measured and the pH was adjusted, where required. After 48 hours at 25° C., the slurries were separated by centrifugation. The solids were analyzed by XRPD, while the pH of the separated liquors were also measured.

[7] = Salt disproportionation studies (slurry in deionized water); settings: for XRPD after salt disproportionation study, 48 hours / measured pH after slurrying in water: 48 hours
Method: Samples of salts described herein were prepared for disproportionation studies. Approximately 15 mg of the salt material was suspended in 4 mL of deionized water at ambient temperature (ca. 22° C.). The slurry of the salt was shaken at ambient temperature and analyzed after: 1 h, 24 h, and 48 h. Each sample was filtered using a centrifuge filter. The solid was analyzed by XRPD. pH measurements were performed for the solution (three pH measurements were carried out for each sample and the average pH was calculated).

[8] = 7 day stability testing, open vials at 40° C./75% RH, ambient and 80° C.; settings: for XRPD analysis after storage for 1 week: 80° C., and ambient temperature; for Purity after 1 week (%) / area % purity and form changes after 1 week: open vials; for T = 0 purity (%): T = 0, before storage; for area % purity and form changes after 1 week: ambient, 40° C./75% RH and 80° C.
[9] = 2% and 5% water in acetone, 25° C.
[10] = 2% water in water/acetone, 25° C., Form = form of the same salt
[11] = 2% water in water/acetone, 50° C., Form = form of the same salt
[12] = 5% water in water/acetone, 25° C., Form = form of the same salt
[13] = 5% water in water/acetone, 50° C., Form = form of the same salt
[14] = 20% water in water/acetone, 25° C.
[15] = 20% water in water/acetone, 50° C.
[16] = Input Solvent Water, 25° C., 48 hours
[17] = Input Solvent pH 1, 25° C., 48 hours
[18] = Input Solvent pH 4.5, 25° C., 48 hours

## O=S(=O)(O)c1cccc2c(S(=O)(=O)O)cccc12
[1]
  stability under accelerated storage conditions (XRPD): decreased crystallinity

## O=C(c1ccc(Oc2ccccc2)cc1Cl)c1c[nH]c2ncnc(N[C@@H]3CC[C@@H](CO)OC3)c12 [Form 10, (2-chloro-4-phenoxyphenyl)(4-(((3R,6S)-6-(hydroxymethyl)tetrahydro-2H-pyran-3-yl)amino)-7H-pyrrolo[2,3-d]pyrimidin-5-yl)methanone]
[2]; 150° C.
  VT-XRPD form upon heating to 150° C.: persisted upon heating to 150 °C with poor crystallinity
[2]; 230° C.
  VT-XRPD form at 230° C.: became amorphous
[2]; VT-XRPD Run 1, Temp 30° C.
  Identity: Form 10
[2]; VT-XRPD Run 2, Temp 150° C.
  Identity: Form 10
[2]; VT-XRPD Run 3, Temp 200° C., two forms printed in two cells
  Identity: Form 10; also recorded: Form 12
[2]; VT-XRPD Run 4, Temp 210° C.
  Identity: Form 12
[2]; VT-XRPD Run 5, Temp 230° C.
  Identity: Amorphous
[2]; VT-XRPD Run 6, Temp 30° C.
  Identity: Amorphous
[2]; ca. 200° C. to ca. 210° C.
  VT-XRPD form between ca. 200° C. and ca. 210° C.: converted to Form 12
[2]; cooling to 30° C.
  VT-XRPD form upon cooling to 30° C.: remained amorphous
[3]
  hygroscopic nature by DVS: slightly hygroscopic
  Post-DVS XRPD analysis (form): no change in form, but reduction in crystallinity
  moisture uptake by DVS: 0.94%
[4]
  KF moisture (water) content: 1.48%
  KF water content in equivalents: 0.4 equivalents

## O=C(c1ccc(Oc2ccccc2)cc1Cl)c1c[nH]c2ncnc(N[C@@H]3CC[C@@H](CO)OC3)c12.O=S(=O)(O)c1ccccc1 [besylate Form 1]
[5]; [9]
  solid obtained in hydration study (XRPD): recovered
[5]; [10]
  Hydration study result (solid by XRPD): Form 1
[5]; [11]
  Hydration study result (solid by XRPD): Form 1
[5]; [12]
  Hydration study result (solid by XRPD): Gum
[5]; [13]
  Hydration study result (solid by XRPD): Gum
[5]; [14]
  Hydration study result (solid by XRPD): Gum
[5]; [15]
  Hydration study result (solid by XRPD): Gum
[5]
  solid obtained in hydration study: gum
[6]; Input Solvent Water
  pH - 2 Hours at 25° C.: 1.96
  pH - 24 Hours at 25° C.: 1.68
  pH - 48 Hours at 25° C.: 1.84
[6]; [16]
  Solubility: 200 µg/mL
[6]; Input Solvent pH 1
  pH - 2 Hours at 25° C.: 0.19
  pH - 24 Hours at 25° C.: 0.37
  pH - 48 Hours at 25° C.: 1.07
[6]; [17]
  Solubility: 200 µg/mL
[6]; Input Solvent pH 4.5
  pH - 2 Hours at 25° C.: 4.20
  pH - 24 Hours at 25° C.: 3.80
  pH - 48 Hours at 25° C.: 3.82
[6]; [18]
  Solubility: <100 µg/mL
[6]; Input Solvent pH 6.5
  pH - 2 Hours at 25° C.: 3.31
  pH - 24 Hours at 25° C.: 2.51
  pH - 48 Hours at 25° C.: 3.26
[6]; 48 hours
  Solubility (mg/mL): <LOD
[6]; 25° C., 48 hours
  XRPD after thermodynamic solubility studies: poorly crystalline; also recorded: no change from the input material
[1]
  stability under accelerated storage conditions (XRPD): stable
[7]
  XRPD after salt disproportionation study, 24 hours: gel-like, amorphous solid
  XRPD after salt disproportionation study, 48 hours: staying partially crystalline; also recorded: no change from the input material
[3]
  Post-DVS XRPD analysis (form): no change in form from the input material
[4]
  KF moisture (water) content: 0.24% and 2.0%
[8]; 40° C./75% RH
  XRPD analysis after storage for 1 week: no change in form from the input material
  Purity after 1 week (%): 97.8%
[8]; 80° C.
  Purity after 1 week (%): 97.4%
[8]; Ambient
  Purity after 1 week (%): 97.4%
[8]
  T = 0 purity (%): 97.4%
  area % purity and form changes after 1 week: no decrease in area % purity or form changes

## O=C(c1ccc(Oc2ccccc2)cc1Cl)c1c[nH]c2ncnc(N[C@@H]3CC[C@@H](CO)OC3)c12.O=S(=O)(O)CCS(=O)(=O)O [edisylate Form 1]
[6]; 25° C., 48 hours
  XRPD after thermodynamic solubility studies: no change from the input material
[7]
  XRPD after salt disproportionation study, 48 hours: no change from the input material
  measured pH after slurrying in water: 2.32
[3]
  Post-DVS XRPD analysis (form): no change in form from the input material
  moisture uptake by DVS: ca. 4.6%
[4]
  KF moisture (water) content: 0.94%
[8]; 40° C./75% RH
  XRPD analysis after storage for 1 week: no change in form from the input material
  Purity after 1 week (%): 98.1%
[8]; 80° C.
  Purity after 1 week (%): 97.5%
[8]; Ambient
  Purity after 1 week (%): 97.9%
[8]
  T = 0 purity (%): 97.9%
  area % purity and form changes after 1 week: no decrease in area % purity or form changes

## Br.O=C(c1ccc(Oc2ccccc2)cc1Cl)c1c[nH]c2ncnc(N[C@@H]3CC[C@@H](CO)OC3)c12 [hydrobromide Form 1]
[5]; [9]
  solid obtained in hydration study (XRPD): recovered
[5]; 2% water in acetone, 50° C.
  solid obtained in hydration study (XRPD): potentially new form
[5]; [10]
  Hydration study result (solid by XRPD): Form 1
[5]; [11]
  Hydration study result (solid by XRPD): low crystallinity
[5]; [12]
  Hydration study result (solid by XRPD): Form 1
[5]; [13]
  Hydration study result (solid by XRPD): Gum
[5]; [14]
  Hydration study result (solid by XRPD): Gum
[5]; [15]
  Hydration study result (solid by XRPD): Gum
[5]
  solid obtained in hydration study: gum
[6]; 25° C., 48 hours
  XRPD after thermodynamic solubility studies: no change from the input material
[1]
  stability under accelerated storage conditions (XRPD): stable
[7]
  XRPD after salt disproportionation study, 48 hours: no change from the input material
[3]
  Post-DVS XRPD analysis (form): no change in form from the input material
  moisture uptake by DVS: ca. 7.0%
[4]
  KF moisture (water) content: 7.39%
[8]; 40° C./75% RH
  XRPD analysis after storage for 1 week: no change in form from the input material

## Br.O=C(c1ccc(Oc2ccccc2)cc1Cl)c1c[nH]c2ncnc(N[C@@H]3CC[C@@H](CO)OC3)c12 [hydrobromide Form 2]
[6]; Input Solvent Water
  pH - 2 Hours at 25° C.: 1.86
  pH - 24 Hours at 25° C.: 1.34
  pH - 48 Hours at 25° C.: 1.86
[6]; [16]
  Solubility: 500 µg/mL
[6]; Input Solvent pH 1
  pH - 2 Hours at 25° C.: 0.27
  pH - 24 Hours at 25° C.: 0.40
  pH - 48 Hours at 25° C.: 0.78
[6]; [17]
  Solubility: <100 µg/mL
[6]; Input Solvent pH 4.5
  pH - 2 Hours at 25° C.: 3.97
  pH - 24 Hours at 25° C.: 3.62
  pH - 48 Hours at 25° C.: 3.84
[6]; [18]
  Solubility: <100 µg/mL
[6]; Input Solvent pH 6.5
  pH - 2 Hours at 25° C.: 3.53
  pH - 24 Hours at 25° C.: 2.61
  pH - 48 Hours at 25° C.: 3.44
[6]; 48 hours
  Solubility (mg/mL): <LOD
[6]; pH 1, 25° C., 48 hours
  XRPD after thermodynamic solubility studies, pH 1: hydrobromide Form 1 and 2 are observed
[6]; water and pH 4.5 and 6.5, 25° C., 48 hours
  XRPD after thermodynamic solubility studies, water and pH 4.5 and 6.5: poorly crystalline
[7]
  XRPD after salt disproportionation study, 24 hours: partially crystalline
  XRPD after salt disproportionation study, 48 hours: staying hydrobromide Form 2
  measured pH after slurrying in water: 1.86
[3]
  Post-DVS XRPD analysis (form): no change in form from the input material
  moisture uptake by DVS: ca. 2.4%
[4]
  KF moisture (water) content: 1.97%
[8]; 40° C./75% RH
  XRPD analysis after storage for 1 week: no change in form from the input material

## Cl.O=C(c1ccc(Oc2ccccc2)cc1Cl)c1c[nH]c2ncnc(N[C@@H]3CC[C@@H](CO)OC3)c12 [hydrochloride Form 2]
[1]
  stability under accelerated storage conditions (XRPD): decreased crystallinity

## O=C(O)/C=C\C(=O)O.O=C(c1ccc(Oc2ccccc2)cc1Cl)c1c[nH]c2ncnc(N[C@@H]3CC[C@@H](CO)OC3)c12 [maleate Form 1]
[1]
  stability under accelerated storage conditions (XRPD): stable

## O=C(O)C(=O)O.O=C(c1ccc(Oc2ccccc2)cc1Cl)c1c[nH]c2ncnc(N[C@@H]3CC[C@@H](CO)OC3)c12 [oxalate Form 3]
[1]
  stability under accelerated storage conditions (XRPD): stable
